Molecular target: T1, PkPSD proenzyme; MBP-His6-Δ34PkPSD(S308A) (Plasmodium knowlesi, UniProt B3L2V1, S308A)
T1 construct: gene PKH_072580
Experiment: biochemical

T1 sequence (B3L2V1 35-354 S308A): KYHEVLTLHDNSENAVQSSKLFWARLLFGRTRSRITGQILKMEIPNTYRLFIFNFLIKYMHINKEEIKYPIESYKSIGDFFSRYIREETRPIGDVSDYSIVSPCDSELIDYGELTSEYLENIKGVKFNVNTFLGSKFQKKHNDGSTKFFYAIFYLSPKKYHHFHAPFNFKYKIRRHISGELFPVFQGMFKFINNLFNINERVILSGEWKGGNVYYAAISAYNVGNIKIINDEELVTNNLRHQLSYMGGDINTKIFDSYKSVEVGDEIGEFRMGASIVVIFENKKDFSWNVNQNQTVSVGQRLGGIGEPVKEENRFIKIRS

| Compound | Kd |
| --- | --- |
| CCCCCCCC/C=C\CCCCCCCC(=O)OC[C@H](COP(=O)(O)OCC(O)CO)OC(=O)CCCCCCC/C=C\CCCCCCCC (some centres unmarked) [DOPG] | 66.4 nM |
| CCCCCCCC/C=C\CCCCCCCC(=O)OC[C@H](COP(=O)(O)OC[C@H](N)C(=O)O)OC(=O)CCCCCCC/C=C\CCCCCCCC [DOPS] | 80.4 nM |

From publication PMC10172927, “Maturation of the malarial phosphatidylserine decarboxylase is mediated by high affinity binding to anionic phospholipids” (The Journal of Biological Chemistry, 2023)
